Experimental data from US7947717B2 (priority 2008, dated 2011).
Like-named read-outs stand apart in the source and are kept apart here.

Assays:
hERG = hERG (Homo sapiens, UniProt Q12809); assay: in vitro
lethal factor (LF) = lethal factor (LF) (Bacillus anthracis, UniProt P15917); assay: biochemical; format: biochemical
[1] = rat
in vitro [2] = settings: rat, hepatocytes, pH 7.4
HepG2 cells = settings: human
in vitro [3] = settings: s9
human CYP 2C19 = human CYP 2C19 (Homo sapiens, UniProt P33261); assay: biochemical
human CYP2C9 = human CYP2C9 (Homo sapiens, UniProt P11712); assay: biochemical
human CYP1A2 = biological target: T1, human CYP1A2 (Homo sapiens, UniProt P05177); assay: biochemical
T1 sequence (P05177 1-516): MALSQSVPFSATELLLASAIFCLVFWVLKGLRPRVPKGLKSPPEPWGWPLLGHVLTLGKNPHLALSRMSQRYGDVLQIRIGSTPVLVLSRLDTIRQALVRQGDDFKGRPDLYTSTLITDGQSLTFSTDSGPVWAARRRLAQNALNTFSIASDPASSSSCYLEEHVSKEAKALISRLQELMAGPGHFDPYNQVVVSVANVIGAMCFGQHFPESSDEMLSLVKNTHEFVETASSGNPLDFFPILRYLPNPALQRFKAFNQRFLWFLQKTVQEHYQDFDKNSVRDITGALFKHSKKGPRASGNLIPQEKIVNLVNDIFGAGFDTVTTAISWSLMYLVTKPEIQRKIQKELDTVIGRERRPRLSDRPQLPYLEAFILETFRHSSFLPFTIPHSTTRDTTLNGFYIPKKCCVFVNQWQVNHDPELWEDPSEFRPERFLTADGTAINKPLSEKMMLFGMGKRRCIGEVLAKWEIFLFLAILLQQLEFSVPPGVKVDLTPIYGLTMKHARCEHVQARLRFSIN

human CYP2D6 = human CYP2D6 (Homo sapiens, UniProt P10635); assay: biochemical
physchem = settings: 23 °C, pH 7.4, aqueous with cosolvent or surfactant or cyclodextrin, kinetic from dmso stock
BoNT A = BoNT A (Clostridium botulinum, UniProt P0DPI0); assay: biochemical
RAW 264.7 cells = format: cell-based, Murine
MMP-2 = biological target: T2, MMP-2 (Homo sapiens, UniProt P08253); assay: MMP-2 assay (Anaspec kit); format: biochemical
T2 construct: purchased Anaspec, Inc. 71151/71155
T2 sequence (P08253 110-660): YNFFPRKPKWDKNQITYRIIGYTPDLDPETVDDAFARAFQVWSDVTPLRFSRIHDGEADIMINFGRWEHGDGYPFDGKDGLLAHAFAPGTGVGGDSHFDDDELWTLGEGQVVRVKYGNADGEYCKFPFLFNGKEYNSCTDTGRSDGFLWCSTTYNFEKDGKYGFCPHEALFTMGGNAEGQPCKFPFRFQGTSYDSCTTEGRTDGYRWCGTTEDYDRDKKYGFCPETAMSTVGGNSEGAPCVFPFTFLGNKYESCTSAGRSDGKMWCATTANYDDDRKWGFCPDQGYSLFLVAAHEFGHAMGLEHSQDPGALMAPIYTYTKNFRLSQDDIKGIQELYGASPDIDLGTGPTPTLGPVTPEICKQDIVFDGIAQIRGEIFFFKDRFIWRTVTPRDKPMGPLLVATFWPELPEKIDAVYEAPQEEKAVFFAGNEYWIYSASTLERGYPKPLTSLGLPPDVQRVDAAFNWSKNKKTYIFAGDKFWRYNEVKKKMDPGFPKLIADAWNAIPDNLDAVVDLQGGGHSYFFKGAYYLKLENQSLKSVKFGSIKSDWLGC

human MDR1 ABCB1/Pgp = human MDR1 ABCB1/Pgp (Homo sapiens, UniProt P08183)
LF metalloproteinase = LF metalloproteinase (Bacillus anthracis, UniProt P15917); settings: read-out: Ki of LF metalloproteinase activity; cited from earlier work
human CYP3A4 = human CYP3A4 (Homo sapiens, UniProt P08684); assay: biochemical
[4] = rat, hepatocytes
[5] = not given; remark: listed apart in the source
MMP-9 = biological target: T3, MMP-9 (Homo sapiens, UniProt P14780); assay: MMP-9 assay (Anaspec kit); format: biochemical
T3 construct: purchased Anaspec, Inc. 71151/71155

[6] = system: Bacillus anthracis Sterne spores; design: species or system A/J mice; settings: mouse, in vivo
[7] = read-out: IC50 (μM) of selected LF compounds (Table 7)

Sequence of human CYP 2C19 (P33261 whole entry): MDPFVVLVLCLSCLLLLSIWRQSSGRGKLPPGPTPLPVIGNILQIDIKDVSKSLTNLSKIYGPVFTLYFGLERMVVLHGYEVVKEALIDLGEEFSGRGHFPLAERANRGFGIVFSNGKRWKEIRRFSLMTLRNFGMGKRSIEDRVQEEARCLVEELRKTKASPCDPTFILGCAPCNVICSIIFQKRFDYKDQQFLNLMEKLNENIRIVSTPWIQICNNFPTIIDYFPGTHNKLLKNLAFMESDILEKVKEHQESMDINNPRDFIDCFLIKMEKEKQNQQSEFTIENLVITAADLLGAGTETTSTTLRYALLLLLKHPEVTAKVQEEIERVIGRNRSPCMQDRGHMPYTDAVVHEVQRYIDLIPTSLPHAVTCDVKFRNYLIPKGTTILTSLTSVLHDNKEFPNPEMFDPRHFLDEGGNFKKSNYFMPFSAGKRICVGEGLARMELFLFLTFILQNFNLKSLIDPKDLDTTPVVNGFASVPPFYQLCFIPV
Sequence of lethal factor (LF) (P15917 34-809 limits assumed): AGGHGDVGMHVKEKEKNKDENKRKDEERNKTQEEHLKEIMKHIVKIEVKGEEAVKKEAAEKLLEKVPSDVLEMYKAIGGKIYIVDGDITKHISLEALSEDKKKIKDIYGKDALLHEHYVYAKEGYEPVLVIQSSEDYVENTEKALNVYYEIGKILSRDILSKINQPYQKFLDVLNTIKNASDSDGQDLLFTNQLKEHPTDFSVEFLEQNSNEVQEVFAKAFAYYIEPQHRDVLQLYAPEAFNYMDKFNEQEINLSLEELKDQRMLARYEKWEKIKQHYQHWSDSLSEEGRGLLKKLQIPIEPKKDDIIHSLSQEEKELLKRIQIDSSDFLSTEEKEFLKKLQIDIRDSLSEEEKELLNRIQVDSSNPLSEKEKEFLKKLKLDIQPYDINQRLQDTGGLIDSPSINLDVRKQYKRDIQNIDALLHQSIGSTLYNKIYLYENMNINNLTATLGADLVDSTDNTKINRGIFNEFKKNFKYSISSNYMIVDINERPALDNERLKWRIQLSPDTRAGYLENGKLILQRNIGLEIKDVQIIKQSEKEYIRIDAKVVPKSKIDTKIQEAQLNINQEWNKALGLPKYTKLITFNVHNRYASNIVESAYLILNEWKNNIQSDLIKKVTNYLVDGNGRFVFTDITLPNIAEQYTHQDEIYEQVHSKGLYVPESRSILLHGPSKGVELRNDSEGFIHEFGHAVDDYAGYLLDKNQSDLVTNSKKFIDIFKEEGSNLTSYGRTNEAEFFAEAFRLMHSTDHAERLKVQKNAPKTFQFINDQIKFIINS
Sequence of BoNT A (P0DPI0 whole entry, looked up): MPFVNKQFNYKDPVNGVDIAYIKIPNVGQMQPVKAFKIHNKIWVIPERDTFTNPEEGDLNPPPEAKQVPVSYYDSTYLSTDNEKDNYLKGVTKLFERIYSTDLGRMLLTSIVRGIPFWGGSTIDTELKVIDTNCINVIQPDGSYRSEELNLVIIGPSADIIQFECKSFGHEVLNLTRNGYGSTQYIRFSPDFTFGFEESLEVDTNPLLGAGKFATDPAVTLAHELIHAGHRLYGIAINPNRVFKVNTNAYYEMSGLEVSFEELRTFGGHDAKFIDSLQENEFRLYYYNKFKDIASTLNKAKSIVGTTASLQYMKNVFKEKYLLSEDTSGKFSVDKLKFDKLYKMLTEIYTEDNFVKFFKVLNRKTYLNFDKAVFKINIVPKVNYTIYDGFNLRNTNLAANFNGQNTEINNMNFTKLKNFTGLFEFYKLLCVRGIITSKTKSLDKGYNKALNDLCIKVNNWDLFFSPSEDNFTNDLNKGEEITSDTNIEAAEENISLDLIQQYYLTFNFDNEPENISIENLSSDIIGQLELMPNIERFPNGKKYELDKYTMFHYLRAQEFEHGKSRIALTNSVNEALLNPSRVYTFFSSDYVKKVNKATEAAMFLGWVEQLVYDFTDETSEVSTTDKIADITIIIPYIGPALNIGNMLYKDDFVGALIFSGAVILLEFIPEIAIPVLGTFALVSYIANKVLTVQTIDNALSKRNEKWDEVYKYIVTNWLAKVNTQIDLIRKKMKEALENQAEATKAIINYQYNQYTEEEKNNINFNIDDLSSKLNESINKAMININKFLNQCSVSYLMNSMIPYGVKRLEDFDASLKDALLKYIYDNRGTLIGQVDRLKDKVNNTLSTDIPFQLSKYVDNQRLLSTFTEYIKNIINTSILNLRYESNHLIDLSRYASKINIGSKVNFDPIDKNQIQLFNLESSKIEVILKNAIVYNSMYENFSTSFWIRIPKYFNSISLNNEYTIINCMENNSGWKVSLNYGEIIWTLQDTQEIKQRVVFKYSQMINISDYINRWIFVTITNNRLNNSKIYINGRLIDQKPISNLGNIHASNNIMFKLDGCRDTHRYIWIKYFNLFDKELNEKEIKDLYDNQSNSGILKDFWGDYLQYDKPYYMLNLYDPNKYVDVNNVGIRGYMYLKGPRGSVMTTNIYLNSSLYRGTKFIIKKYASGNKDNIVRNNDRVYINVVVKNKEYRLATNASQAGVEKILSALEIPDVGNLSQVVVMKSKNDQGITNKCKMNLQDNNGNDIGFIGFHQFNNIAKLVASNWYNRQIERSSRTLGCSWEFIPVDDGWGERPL
T3 sequence (P14780 107-707 limits assumed): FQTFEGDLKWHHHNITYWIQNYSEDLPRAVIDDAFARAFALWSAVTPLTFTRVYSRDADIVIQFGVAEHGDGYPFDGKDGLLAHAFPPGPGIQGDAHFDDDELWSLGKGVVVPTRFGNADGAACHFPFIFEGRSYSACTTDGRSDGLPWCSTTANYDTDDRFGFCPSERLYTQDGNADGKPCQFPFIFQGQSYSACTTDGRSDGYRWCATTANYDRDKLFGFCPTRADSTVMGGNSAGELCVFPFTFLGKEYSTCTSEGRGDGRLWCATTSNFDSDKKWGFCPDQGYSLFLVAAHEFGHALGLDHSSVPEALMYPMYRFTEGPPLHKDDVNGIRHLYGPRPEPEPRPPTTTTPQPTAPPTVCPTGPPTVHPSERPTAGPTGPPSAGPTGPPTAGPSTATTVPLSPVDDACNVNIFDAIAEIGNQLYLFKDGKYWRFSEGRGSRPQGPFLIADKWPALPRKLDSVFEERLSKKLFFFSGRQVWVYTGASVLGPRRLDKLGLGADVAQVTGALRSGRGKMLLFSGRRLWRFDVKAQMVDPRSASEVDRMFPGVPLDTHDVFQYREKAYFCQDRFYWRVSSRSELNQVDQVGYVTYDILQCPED
Sequence of human CYP2D6 (P10635 whole entry): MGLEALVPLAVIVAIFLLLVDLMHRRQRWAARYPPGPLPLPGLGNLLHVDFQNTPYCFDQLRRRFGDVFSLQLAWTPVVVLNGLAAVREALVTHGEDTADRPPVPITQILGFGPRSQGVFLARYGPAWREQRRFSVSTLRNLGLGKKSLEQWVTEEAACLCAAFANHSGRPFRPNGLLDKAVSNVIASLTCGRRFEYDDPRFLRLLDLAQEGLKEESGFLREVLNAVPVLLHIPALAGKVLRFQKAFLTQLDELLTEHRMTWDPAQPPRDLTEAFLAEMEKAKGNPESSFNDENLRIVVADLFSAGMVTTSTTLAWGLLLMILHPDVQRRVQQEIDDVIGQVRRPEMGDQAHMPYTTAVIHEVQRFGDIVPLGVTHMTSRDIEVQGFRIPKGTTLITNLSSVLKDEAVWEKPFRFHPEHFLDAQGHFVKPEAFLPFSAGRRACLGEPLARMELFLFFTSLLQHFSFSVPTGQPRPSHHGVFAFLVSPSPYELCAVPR
Sequence of human CYP2C9 (P11712 whole entry): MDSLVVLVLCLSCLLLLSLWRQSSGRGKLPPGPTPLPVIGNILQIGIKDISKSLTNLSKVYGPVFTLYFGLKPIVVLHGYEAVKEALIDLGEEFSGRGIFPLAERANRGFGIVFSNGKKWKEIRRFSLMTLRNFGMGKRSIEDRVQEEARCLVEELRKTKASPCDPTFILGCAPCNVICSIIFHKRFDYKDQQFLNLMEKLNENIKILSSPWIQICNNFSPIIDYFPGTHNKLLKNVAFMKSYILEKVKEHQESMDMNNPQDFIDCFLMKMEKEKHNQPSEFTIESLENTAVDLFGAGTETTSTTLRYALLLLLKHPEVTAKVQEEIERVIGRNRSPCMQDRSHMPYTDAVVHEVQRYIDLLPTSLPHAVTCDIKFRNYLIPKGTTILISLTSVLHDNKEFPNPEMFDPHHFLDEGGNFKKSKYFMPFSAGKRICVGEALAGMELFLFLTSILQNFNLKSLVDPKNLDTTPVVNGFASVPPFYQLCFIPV
Sequence of human CYP3A4 (P08684 whole entry, looked up): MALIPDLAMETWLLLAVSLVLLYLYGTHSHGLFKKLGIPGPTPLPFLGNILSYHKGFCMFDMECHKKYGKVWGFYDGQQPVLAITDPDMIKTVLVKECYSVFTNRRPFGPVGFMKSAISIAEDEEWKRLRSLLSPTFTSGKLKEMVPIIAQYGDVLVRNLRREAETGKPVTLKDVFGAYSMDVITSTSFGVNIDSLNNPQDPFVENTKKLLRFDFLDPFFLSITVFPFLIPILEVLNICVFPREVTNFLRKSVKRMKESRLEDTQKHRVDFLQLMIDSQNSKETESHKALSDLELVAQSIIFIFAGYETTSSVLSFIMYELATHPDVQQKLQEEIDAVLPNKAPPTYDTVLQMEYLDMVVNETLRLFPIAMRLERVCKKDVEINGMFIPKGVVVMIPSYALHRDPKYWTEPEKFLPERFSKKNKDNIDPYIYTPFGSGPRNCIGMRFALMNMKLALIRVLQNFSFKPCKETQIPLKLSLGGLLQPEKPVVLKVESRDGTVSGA

## COc1ccc(-c2ccc(/C=C3\SC(=S)N(CC(=O)O)C3=O)o2)cc1Cl [Compound 1]
hERG
  inhibition at 30 µM: 58%
Lethal factor (LF)
  IC50: 0.29 µM
[1]
  Plasma Stab. T = 30 min (l): 90%
In vitro [2]
  half-life: 37.1 min
  hepatocyte CLint: 21.6 µL/min/1e6 cells
HepG2 cells
  Cytox. (c) Cytotoxicity against HepG2 cells: Nontoxic up to 100 μM
In vitro [3]
  half-life: 128 min
  hepatocyte CLint: 5.6
Human CYP 2C19
  IC50: 31.3 µM
Human CYP2C9
  IC50: 28.3 µM
Human CYP1A2
  IC50: 20.9 µM
Human CYP2D6
  IC50: 30.5 µM
physchem
  solubility kinetic: < 10 µg/mL

## CC(C)NCC(O)COc1cccc2ccccc12 (stereo not drawn) [Propranolol]
other
  Pampa (d) permeability class: High

## COc1ccc(-c2nn(-c3ccccc3)cc2/C=C2\SC(=S)N(CCS(=O)(=O)O)C2=O)cc1 [Compound 40, (Z)-2-(5-((3-(4-methoxyphenyl)-1-phenyl-1H-pyrazol-4-yl)methylene)-4-oxo-2-thioxothiazolidin-3-yl)ethanesulfonic acid]
BoNT A
  IC50: > 200 µM
Lethal factor (LF); pH 7.4, read-out: LF IC50
  IC50: 2.04 µM
RAW 264.7 cells
  protection of macrophages from LF/PA-induced cell death: protect macrophages from LF/PA-induced cell death
MMP-2
  IC50: 34.5 µM

## Lucifer Yellow
other
  Pampa (d) permeability class: Low

## COCCc1ccc(OCC(O)CNC(C)C)cc1 (stereo not drawn) [Metoprolol]
other
  Pampa (d) permeability class: High

## O=C(O)CN1C(=O)/C(=C/c2ccc(-c3cc(C(F)(F)F)ccc3Cl)o2)SC1=S [Compound 65]
hERG
  inhibition at 30 µM: 45%
Lethal factor (LF); [7]
  IC50: 0.19 µM
[1]
  Plasma Stab. T = 30 min (l): 82%
In vitro [2]
  half-life: 42.4 min
  hepatocyte CLint: 19.8 µL/min/1e6 cells
HepG2 cells
  Cytox. (c) Cytotoxicity against HepG2 cells: Nontoxic up to 100 μM
In vitro [3]
  half-life: 37.3 min
  hepatocyte CLint: 25
Human CYP 2C19
  IC50: > 100 µM
Human CYP2C9
  IC50: > 100 µM
Human CYP1A2
  IC50: 20.5 µM
Human CYP2D6
  IC50: > 100 µM
physchem
  solubility kinetic: < 10 µg/mL
Human MDR1 ABCB1/Pgp
  IC50: > 100 µM

## CNC(=O)[C@H](Cc1c[nH]c2ccccc12)NC(=O)[C@@H](CC(=O)NO)CC(C)C [GM6001]
LF metalloproteinase
  Ki: ~5 µM

## O=C(O)CN1C(=O)/C(=C/c2ccc(-c3ccc(Cl)c(Cl)c3)o2)SC1=S [Compound 64]
Human CYP3A4
  IC50: > 50 µM
hERG
  inhibition at 30 µM: 67%
Lethal factor (LF); [7]
  IC50: 0.26 µM
other
  Pampa (d) permeability class: Med.
[1]
  Plasma Stab. T = 30 min (l): 79%
[4]
  Met. Stab. t1/2 (k): Degraded
HepG2 cells
  Cytox. (c) Cytotoxicity against HepG2 cells: Nontoxic up to 100 μM
Human CYP 2C19
  IC50: 36.9 µM
Human CYP2C9
  IC50: > 50 µM
Human CYP1A2
  IC50: 2.79 µM
[5]
  Liver S9 Stab t1/2 (m): Degraded
Human CYP2D6
  IC50: 47.6 µM
physchem
  solubility kinetic: < 10 µg/mL

## O=C(O)CN1C(=O)/C(=C/c2cn(-c3ccc(Cl)cc3)nc2-c2ccc(Cl)cc2)SC1=S [Compound 34, (Z)-2-(5-((1,3-bis(4-chlorophenyl)-1H-pyrazol-4-yl)methylene)-4-oxo-2-thioxothiazolidin-3-yl)acetic acid]
BoNT A
  IC50: 8.18 µM
Lethal factor (LF); pH 7.4, read-out: LF IC50
  IC50: 2.95 µM
MMP-9
  inhibition of MMP-9 (in words): did not inhibit
RAW 264.7 cells
  protection of macrophages from LF/PA-induced cell death: protect macrophages from LF/PA-induced cell death
[6]
  survival compared to control group (in words, FIG. 3): survived significantly better than control
MMP-2
  inhibition of MMP-2 (in words): did not inhibit

## CC(=O)Oc1ccccc1C(=O)O [acetylsalicylic acid, reference compound]
physchem
  solubility: > 100 µg/mL

## O=C(O)CN1C(=O)/C(=C/c2ccc(-c3cccs3)s2)SC1=S [Compound 66, (Z)-2-(4-oxo-5-((5-(thiophen-2-yl)thiophen-2-yl)methylene)-2-thioxothiazolidin-3-yl)acetic acid]
hERG
  inhibition at 30 µM: 29%
Lethal factor (LF); [7]
  IC50: 2.3 µM
other
  Pampa (d) permeability class: Med.
[1]
  Plasma Stab. T = 30 min (l): 90%
[4]
  Met. Stab. t1/2 (k): Degraded
HepG2 cells
  Cytox. (c) Cytotoxicity against HepG2 cells: Nontoxic up to 100 μM
Human CYP2C9
  IC50: > 100 µM
[5]
  Liver S9 Stab t1/2 (m): Degraded
physchem
  solubility kinetic: < 10 µg/mL

## O=C(O)CN1C(=O)/C(=C/c2csc3ccc(Br)cc23)SC1=S [Compound 58, (Z)-2-(5-((5-bromobenzo[b]thiophen-3-yl)methylene)-4-oxo-2-thioxothiazolidin-3-yl)acetic acid]
BoNT A
  IC50: 74.3 µM
Lethal factor (LF); pH 7.4, read-out: LF IC50
  IC50: 10.4 µM
MMP-9; read-out: MMP9 IC50
  IC50: 64.9 µM
MMP-2; read-out: MMP2 IC50
  IC50: 46.9 µM

## O=C(O)CN1C(=O)C(=Cc2cc(-c3ccccc3)on2)SC1=S [Compound 21, 2-(4-oxo-2-thioxo-5-((5-phenylisoxazol-3-yl)methylene)thiazolidin-3-yl)acetic acid]
BoNT A
  IC50: > 200 µM
Lethal factor (LF)
  IC50: 18.7 µM
MMP-9
  IC50: 50 µM
MMP-2
  IC50: > 100 µM

## O=C(O)CN1C(=O)C(=Cc2cc(-c3ccc(F)cc3)on2)SC1=S [Compound 25, 2-(5-((5-(4-fluorophenyl)isoxazol-3-yl)methylene)-4-oxo-2-thioxothiazolidin-3-yl)acetic acid]
BoNT A
  IC50: > 200 µM
Lethal factor (LF)
  IC50: 12.4 µM
MMP-9
  IC50: > 100 µM
MMP-2
  IC50: 10 µM

## O=C(O)CN1C(=O)/C(=C/c2ccc(N3CCOCC3)s2)SC1=S [Compound 48, (Z)-2-(5-((5-morpholinothiophen-2-yl)methylene)-4-oxo-2-thioxothiazolidin-3-yl)acetic acid]
BoNT A
  IC50: 112 µM
Lethal factor (LF); pH 7.4, read-out: LF IC50
  IC50: 32.5 µM
MMP-9; read-out: MMP9 IC50
  IC50: 64.9 µM
MMP-2; read-out: MMP2 IC50
  IC50: 47.1 µM

## O=C1/C(=C/c2cn(-c3ccccc3)nc2-c2ccc(OCc3ccc(Cl)cc3)cc2)SC(=S)N1CCS(=O)(=O)O [Compound 38, (Z)-2-(5-((3-(4-(4-chlorobenzyloxy)phenyl)-1-phenyl-1H-pyrazol-4-yl)methylene)-4-oxo-2-thioxothiazolidin-3-yl)ethanesulfonic acid]
BoNT A
  IC50: > 200 µM
Lethal factor (LF); pH 7.4, read-out: LF IC50
  IC50: 2.45 µM
RAW 264.7 cells
  protection of macrophages from LF/PA-induced cell death: protect macrophages from LF/PA-induced cell death
MMP-2
  IC50: 10.1 µM

## CC1Cc2cc(-c3nn(-c4ccccc4)cc3/C=C3\SC(=S)N(CCS(=O)(=O)O)C3=O)ccc2O1 (stereo not drawn) [Compound 39, (Z)-2-(5-((3-(2-methyl-2,3-dihydrobenzofuran-5-yl)-1-phenyl-1H-pyrazol-4-yl)methylene)-4-oxo-2-thioxothiazolidin-3-yl)ethanesulfonic acid]
BoNT A
  IC50: > 200 µM
Lethal factor (LF); pH 7.4, read-out: LF IC50
  IC50: 2.29 µM
RAW 264.7 cells
  protection of macrophages from LF/PA-induced cell death: protect macrophages from LF/PA-induced cell death
